# Assay results from patent US11427549B2, “Pyrimidinyloxy benzo-fused compounds as herbicides” (FMC Corporation, priority 2017, dated 2022).
# Key:
# [1] = system: barnyardgrass (Echinochloa crus-galli); assay: Test A preemergence, barnyardgrass; format: in vivo; conditions: Echinochloa crus-galli, pre-emergence, 240 h, 0 to 100 scale (0 no effect, 100 complete control), read-out: Plant response rating, Barnyardgrass; for pest or weed control at 125 g/ha: 125 g ai/ha
# kochia (Kochia scoparia) [2] = assay: Test A preemergence, kochia; format: in vivo; conditions: Bassia scoparia, pre-emergence, 240 h, 0 to 100 scale (0 no effect, 100 complete control), read-out: Plant response rating, Kochia; for pest or weed control at 125 g/ha: 125 g ai/ha
# [3] = system: ragweed (common ragweed, Ambrosia elatior); assay: Test A preemergence, ragweed; format: in vivo; conditions: Ambrosia artemisiifolia, pre-emergence, 240 h, 0 to 100 scale (0 no effect, 100 complete control), read-out: Plant response rating, Ragweed; for pest or weed control at 125 g/ha: 125 g ai/ha
# [4] = system: ryegrass, Italian (Italian ryegrass, Lolium multiflorum); assay: Test A preemergence, ryegrass, Italian; format: in vivo; conditions: Lolium multiflorum, pre-emergence, 240 h, 0 to 100 scale (0 no effect, 100 complete control), read-out: Plant response rating, Ryegrass, Italian; for pest or weed control at 125 g/ha: 125 g ai/ha
# [5] = system: foxtail, green (green foxtail, Setaria viridis); assay: Test A preemergence, foxtail, green; format: in vivo; conditions: Setaria, pre-emergence, 240 h, 0 to 100 scale (0 no effect, 100 complete control), read-out: Plant response rating, Foxtail, Green; for pest or weed control at 125 g/ha: 125 g ai/ha
# Description: Seeds of plant species selected from barnyardgrass (Echinochloa crus-galli), kochia (Kochia scoparia), ragweed (common ragweed, Ambrosia elatior), ryegrass, Italian (Italian ryegrass, Lolium multiflorum), foxtail, giant (giant foxtail, Setaria faberii), foxtail, green (green foxtail, Setaria viridis) and pigweed (Amaranthus retroflexus) were planted into a blend of loam soil and sand and treated preemergence with a directed soil spray using test chemicals formulated in a non-phytotoxic solvent mixture which included a surfactant.
# At the same time, plants selected from these weed species and also wheat (Triticum aestivum), corn (Zea mays), blackgrass (Alopecurus myosuroides), and galium (catchweed bedstraw, Galium aparine) were planted in pots containing the same blend of loam soil and sand and treated with postemergence applications of test chemicals formulated in the same manner. Plants ranged in height from 2 to 10 cm and were in the one- to two-leaf stage for the postemergence treatment. Treated plants and untreated controls were maintained in a greenhouse for approximately 10 days, after which time all treated plants were compared to untreated controls and visually evaluated for injury. […] A dash (-) response means no test result.
# [6] = system: pigweed (Amaranthus retroflexus); assay: Test A preemergence, pigweed; format: in vivo; conditions: Amaranthus retroflexus, pre-emergence, 240 h, 0 to 100 scale (0 no effect, 100 complete control), read-out: Plant response rating, Pigweed; for pest or weed control at 125 g/ha: 125 g ai/ha
# [7] = system: barnyardgrass (Echinochloa crus-galli); assay: Test A postemergence, barnyardgrass; format: in vivo; conditions: Echinochloa crus-galli, post-emergence, 240 h, 0 to 100 scale (0 no effect, 100 complete control), read-out: Plant response rating, Barnyardgrass; for pest or weed control at 125 g/ha: 125 g ai/ha
# kochia (Kochia scoparia) [8] = assay: Test A postemergence, kochia; format: in vivo; conditions: Bassia scoparia, post-emergence, 240 h, 0 to 100 scale (0 no effect, 100 complete control), read-out: Plant response rating, Kochia; for pest or weed control at 125 g/ha: 125 g ai/ha
# [9] = system: ragweed (common ragweed, Ambrosia elatior); assay: Test A postemergence, ragweed; format: in vivo; conditions: Ambrosia artemisiifolia, post-emergence, 240 h, 0 to 100 scale (0 no effect, 100 complete control), read-out: Plant response rating, Ragweed; for pest or weed control at 125 g/ha: 125 g ai/ha
# [10] = system: ryegrass, Italian (Italian ryegrass, Lolium multiflorum); assay: Test A postemergence, ryegrass, Italian; format: in vivo; conditions: Lolium multiflorum, post-emergence, 240 h, 0 to 100 scale (0 no effect, 100 complete control), read-out: Plant response rating, Ryegrass, Italian; for pest or weed control at 125 g/ha: 125 g ai/ha
# [11] = system: pigweed (Amaranthus retroflexus); assay: Test A postemergence, pigweed; format: in vivo; conditions: Amaranthus retroflexus, post-emergence, 240 h, 0 to 100 scale (0 no effect, 100 complete control), read-out: Plant response rating, Pigweed; for pest or weed control at 125 g/ha: 125 g ai/ha
# [12] = system: wheat (Triticum aestivum); assay: Test A postemergence, wheat; format: in vivo; conditions: Triticum aestivum, post-emergence, 240 h, 0 to 100 scale (0 no effect, 100 complete control), read-out: Plant response rating, Wheat; for plant injury at 125 g/ha: 125 g ai/ha
# corn (Zea mays) = assay: Test A postemergence, corn; format: in vivo; conditions: Zea mays, post-emergence, 240 h, 0 to 100 scale (0 no effect, 100 complete control); for Corn plant response rating (crop injury, 0 = no effect, 100 = complete kill) at 125 g/ha: 125 g ai/ha
# [13] = system: blackgrass (Alopecurus myosuroides); assay: Test A postemergence, blackgrass; format: in vivo; conditions: Alopecurus myosuroides, post-emergence, 240 h, 0 to 100 scale (0 no effect, 100 complete control), read-out: Plant response rating, Blackgrass; for pest or weed control at 125 g/ha: 125 g ai/ha
# [14] = system: galium (catchweed bedstraw, Galium aparine); assay: Test A postemergence, galium; format: in vivo; conditions: Galium, post-emergence, 240 h, 0 to 100 scale (0 no effect, 100 complete control), read-out: Plant response rating, Galium; for pest or weed control at 125 g/ha: 125 g ai/ha
# rice (Oryza sativa) = assay: Test B flooded paddy test, rice; conditions: Oryza sativa, read-out: Plant response rating, Rice (0 to 100 scale, 0 is no effect, 100 is complete control)
# [15] = system: ducksalad (Heteranthera limosa); assay: Test B flooded paddy test, ducksalad; conditions: Heteranthera limosa, read-out: Plant response rating, Ducksalad (0 to 100 scale, 0 is no effect, 100 is complete control)
# [16] = system: barnyardgrass (Echinochloa crus-galli); assay: Test B flooded paddy test, barnyardgrass; conditions: Echinochloa crus-galli, read-out: Plant response rating, Barnyardgrass (0 to 100 scale, 0 is no effect, 100 is complete control)
structure (smiles),measurement,setting,value
"O=C1CC(CCC(F)(F)F)c2c(Oc3ncc(Cl)cn3)cccc21 (stereo not drawn) [Compound 11, 4-[(5-Chloro-2-pyrimidinyl)oxy]-2,3-dihydro-3-(3,3,3-trifluoropropyl)-1H-inden-1-one]",pest or weed control at 31 g/ha,[1]; 31 g ai/ha,0%
same,pest or weed control at 125 g/ha,[1],50%
same,pest or weed control at 31 g/ha,kochia (Kochia scoparia) [2]; 31 g ai/ha,0%
same,pest or weed control at 125 g/ha,kochia (Kochia scoparia) [2],20%
same,pest or weed control at 31 g/ha,[3]; 31 g ai/ha,0%
same,pest or weed control at 125 g/ha,[3],0%
same,pest or weed control at 31 g/ha,[4]; 31 g ai/ha,0%
same,pest or weed control at 125 g/ha,[4],20%
same,pest or weed control at 31 g/ha,[5]; 31 g ai/ha,10%
same,pest or weed control at 125 g/ha,[5],70%
same,pest or weed control at 31 g/ha,[6]; 31 g ai/ha,10%
same,pest or weed control at 125 g/ha,[6],100%
same,pest or weed control at 31 g/ha,[7]; 31 g ai/ha,20%
same,pest or weed control at 125 g/ha,[7],30%
same,pest or weed control at 31 g/ha,kochia (Kochia scoparia) [8]; 31 g ai/ha,20%
same,pest or weed control at 125 g/ha,kochia (Kochia scoparia) [8],50%
same,pest or weed control at 31 g/ha,[9]; 31 g ai/ha,0%
same,pest or weed control at 125 g/ha,[9],10%
same,pest or weed control at 31 g/ha,[10]; 31 g ai/ha,30%
same,pest or weed control at 125 g/ha,[10],40%
same,pest or weed control at 31 g/ha,[11]; 31 g ai/ha,40%
same,pest or weed control at 125 g/ha,[11],50%
same,plant injury at 31 g/ha,[12]; 31 g ai/ha,0%
same,plant injury at 125 g/ha,[12],10%
same,"Corn plant response rating (crop injury, 0 = no effect, 100 = complete kill) at 31 g/ha",corn (Zea mays); 31 g ai/ha,0%
same,"Corn plant response rating (crop injury, 0 = no effect, 100 = complete kill) at 125 g/ha",corn (Zea mays),10%
same,pest or weed control at 31 g/ha,[13]; 31 g ai/ha,0%
same,pest or weed control at 125 g/ha,[13],20%
same,pest or weed control at 31 g/ha,[14]; 31 g ai/ha,10%
same,pest or weed control at 125 g/ha,[14],40%
"O=C1OC(CCCC(F)(F)F)c2c(Oc3ncc(Cl)cn3)cccc21 (stereo not drawn) [Compound 1, 4-[(5-Chloro-2-pyrimidinyl)oxy]-3-(4,4,4-trifluorobutyl)-1(3H)-isobenzofuranone]",pest or weed control at 125 g/ha,[1],100%
same,pest or weed control at 500 g/ha,[1]; 500 g ai/ha,100%
same,pest or weed control at 125 g/ha,kochia (Kochia scoparia) [2],100%
same,pest or weed control at 500 g/ha,kochia (Kochia scoparia) [2]; 500 g ai/ha,100%
same,pest or weed control at 125 g/ha,[3],80%
same,pest or weed control at 500 g/ha,[3]; 500 g ai/ha,90%
same,pest or weed control at 125 g/ha,[4],80%
same,pest or weed control at 500 g/ha,[4]; 500 g ai/ha,100%
same,pest or weed control at 125 g/ha,[5],100%
same,pest or weed control at 500 g/ha,[5]; 500 g ai/ha,100%
same,pest or weed control at 125 g/ha,[6],100%
same,pest or weed control at 500 g/ha,[6]; 500 g ai/ha,100%
same,pest or weed control at 125 g/ha,[7],70%
same,pest or weed control at 500 g/ha,[7]; 500 g ai/ha,80%
same,pest or weed control at 125 g/ha,kochia (Kochia scoparia) [8],100%
same,pest or weed control at 500 g/ha,kochia (Kochia scoparia) [8]; 500 g ai/ha,100%
same,pest or weed control at 125 g/ha,[9],10%
same,pest or weed control at 500 g/ha,[9]; 500 g ai/ha,40%
same,pest or weed control at 125 g/ha,[10],50%
same,pest or weed control at 500 g/ha,[10]; 500 g ai/ha,80%
same,pest or weed control at 125 g/ha,[11],100%
same,pest or weed control at 500 g/ha,[11]; 500 g ai/ha,100%
same,plant injury at 125 g/ha,[12],30%
same,plant injury at 500 g/ha,[12]; 500 g ai/ha,80%
same,"Corn plant response rating (crop injury, 0 = no effect, 100 = complete kill) at 125 g/ha",corn (Zea mays),40%
same,"Corn plant response rating (crop injury, 0 = no effect, 100 = complete kill) at 500 g/ha",corn (Zea mays); 500 g ai/ha,60%
same,pest or weed control at 125 g/ha,[13],40%
same,pest or weed control at 500 g/ha,[13]; 500 g ai/ha,100%
same,pest or weed control at 125 g/ha,[14],100%
same,pest or weed control at 500 g/ha,[14]; 500 g ai/ha,100%
same,plant injury at 250 g/ha,rice (Oryza sativa),0%
same,pest or weed control at 250 g/ha,[15],20%
same,pest or weed control at 250 g/ha,[16],0%
